Marks after values point to notes of the source that are not given here.
Tested on: New Zealand White rabbits
Test: Embryo-fetal developmental toxicity study in New Zealand White rabbits (Example 4);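 further: dams given a detailed clinical exam daily GD 6 to 29, about 4 h after dosing, then laparohysterectomy on GD 29 with external, visceral and skeletal fetal examination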

CC(C)NC(=O)COc1cccc(-c2nc(Nc3ccc4[nH]ncc4c3)c3ccccc3n2)c1 [belumosudil, 2-{3-[4-(1H-indazol-5-ylamino)-2-quinazolinyl]phenoxy}-N-(propan-2-yl) acetamide]
Hair sparse, Forefoot/right, times observed/animals affected (125 mg base/kg/day, GD 0-29): 0/0
Hair sparse, Forelimb/left, times observed/animals affected (125 mg base/kg/day, GD 0-29): 4/1
Hair sparse, Hind limb/left, times observed/animals affected (125 mg base/kg/day, GD 0-29): 0/0
Hair sparse, Inguinal region/right, times observed/animals affected (125 mg base/kg/day, GD 0-29): 4/1
Hair sparse, Shoulder/left, times observed/animals affected (125 mg base/kg/day, GD 0-29): 2/1
Hair sparse, Thoracic region, times observed/animals affected (125 mg base/kg/day, GD 0-29): 2/1
Hair sparse, Ventral surface, times observed/animals affected (125 mg base/kg/day, GD 0-29): 19/1
Material in pan/bedding, Red, times observed/animals affected (125 mg base/kg/day, GD 0-29): 2/1
Nail missing, Forefoot/left, times observed/animals affected (125 mg base/kg/day, GD 0-29): 0/0
Scabbed area, Ear/left, times observed/animals affected (125 mg base/kg/day, GD 0-29): 0/0
Scabbed area, Nose/muzzle, times observed/animals affected (125 mg base/kg/day, GD 0-29): 0/0
Skin discolored, Pale, Entire body, times observed/animals affected (125 mg base/kg/day, GD 0-29): 0/0
Swelling, Nose/muzzle, times observed/animals affected (125 mg base/kg/day, GD 0-29): 0/0
Swelling, Vulva, times observed/animals affected (125 mg base/kg/day, GD 0-29): 0/0
Thin, times observed/animals affected (125 mg base/kg/day, GD 0-29): 0/0
Fetal Body Weight Genders Combined, % Difference From Control (225 mg base/kg/day): −5.76%
Fetal External Malformation: Short Tail, No. Fetuses (incidence) (225 mg base/kg/day): 5 (3.2)
Fetal External Malformation: Short Tail, No. Litters (incidence) (225 mg base/kg/day): 2 (10.5)
Fetal External Malformations, No. Fetuses (incidence) (225 mg base/kg/day): 5 (3.2)
Fetal External Malformations, No. Litters (incidence) (225 mg base/kg/day): 2 (10.5)
Fetal Skeletal Malformations, No. Fetuses (incidence) (225 mg base/kg/day): 19 (12.2)
Fetal Skeletal Malformations, No. Litters (incidence) (225 mg base/kg/day): 10 (52.6)
Fetal Visceral Variations, No. Fetuses (incidence) (225 mg base/kg/day): 12 (7.7)
Fetal Visceral Variations, No. Litters (incidence) (225 mg base/kg/day): 8 (42.1)
Maternal Body Weight Change GD 0-29, % Difference From Control (225 mg base/kg/day): −24.2%
Maternal Body Weight GD 10, % Difference From Control (225 mg base/kg/day): −6.3%
Maternal Body Weight GD 13, % Difference From Control (225 mg base/kg/day): −8.0%
Maternal Body Weight GD 16, % Difference From Control (225 mg base/kg/day): −9.2%
Maternal Body Weight GD 19, % Difference From Control (225 mg base/kg/day): −8.4%
Maternal Body Weight GD 21, % Difference From Control (225 mg base/kg/day): −6.7%
Maternal Food Consumption GD 0-29 (225 mg base/kg/day): 119.80
Maternal Food Consumption GD 0-29, % Difference From Control (225 mg base/kg/day): −17.8%
Maternal Food Consumption GD 6-10 (225 mg base/kg/day): 61.2^b
Maternal Food Consumption GD 6-19 (225 mg base/kg/day): 78.70
Maternal Food Consumption GD 6-19, % Difference From Control (225 mg base/kg/day): −49.7%
Maternal Food Consumption GD 19-29 (225 mg base/kg/day): 155.3^b
Mean Fetal Body Weight Females (225 mg base/kg/day): 38.94 g
Mean Fetal Body Weight Genders Combined (225 mg base/kg/day): 38.60 g
Mean Fetal Body Weight Males (225 mg base/kg/day): 38.92 g
Mean Live Litter Size (225 mg base/kg/day): 7.4
Mean Number of Early Resorptions (225 mg base/kg/day): 1.4^a
Mean Number of Resorptions (Combined) (225 mg base/kg/day): 1.5^a
Mean Postimplantation Loss (225 mg base/kg/day): 17.72 %/Litter
Number Litters with Viable Fetuses GD29 (225 mg base/kg/day): 19
Number with All Resorptions GD29 (225 mg base/kg/day): 2
cervical vertebra(e) centra, hemicentra, fetal incidence (225 mg base/kg/day): 2.6%
cervical vertebra(e) centra, hemicentra, litter incidence (225 mg base/kg/day): 21.1%
neural arches (thoracic) fused, fetal incidence (225 mg base/kg/day): 1.9%
neural arches (thoracic) fused, litter incidence (225 mg base/kg/day): 10.5%
neural arches (thoracic) misaligned, fetal incidence (225 mg base/kg/day): 1.3%
neural arches (thoracic) misaligned, litter incidence (225 mg base/kg/day): 10.5%
neural arches (thoracic) misshapen, fetal incidence (225 mg base/kg/day): 2.6%
neural arches (thoracic) misshapen, litter incidence (225 mg base/kg/day): 21.1%
rib(s) branched, fetal incidence (225 mg base/kg/day): 2.6%
rib(s) branched, litter incidence (225 mg base/kg/day): 21.2%
rib(s) fused, fetal incidence (225 mg base/kg/day): 2.6%
rib(s) fused, litter incidence (225 mg base/kg/day): 15.8%
rib(s) misshapen, fetal incidence (225 mg base/kg/day): 1.9%
rib(s) misshapen, litter incidence (225 mg base/kg/day): 15.8%
short tail (entire), fetal incidence (225 mg base/kg/day): 3.2%
short tail (entire), litter incidence (225 mg base/kg/day): 10.5%
sternebra(e) extra, fetal incidence (225 mg base/kg/day): 4.5%
sternebra(e) extra, litter incidence (225 mg base/kg/day): 21.1%
sternebra(e) fused, fetal incidence (225 mg base/kg/day): 4.5%
sternebra(e) fused, litter incidence (225 mg base/kg/day): 31.6%
tail bent (entire), fetal incidence (225 mg base/kg/day): 1.3%
tail bent (entire), litter incidence (225 mg base/kg/day): 5.3%
ureter malpositioned, litter incidence (225 mg base/kg/day): 26.3%
Number Aborted (225 mg base/kg/day, 23 females): 1
Number Died (225 mg base/kg/day, 23 females): 1
Number Litters with Viable Fetuses GD29 (225 mg base/kg/day, 23 females): 19
Number Not Pregnant (225 mg base/kg/day, 23 females): 0
Number with All Resorptions GD29 (225 mg base/kg/day, 23 females): 2
Activity decreased, times observed/animals affected (225 mg base/kg/day, GD 0-29): 4/1
Feces few/absent, times observed/animals affected (225 mg base/kg/day, GD 0-29): 0/0
Hair discolored, Brown, Anogenital region, times observed/animals affected (225 mg base/kg/day, GD 0-29): 0/0
Hair discolored, Brown, Ear/left, times observed/animals affected (225 mg base/kg/day, GD 0-29): 0/0
Hair discolored, Brown, Ear/right, times observed/animals affected (225 mg base/kg/day, GD 0-29): 0/0
Hair discolored, Brown, Face, times observed/animals affected (225 mg base/kg/day, GD 0-29): 12/2
Hair discolored, Brown, Hind limb/left, times observed/animals affected (225 mg base/kg/day, GD 0-29): 1/1
Hair discolored, Red, Anogenital region, times observed/animals affected (225 mg base/kg/day, GD 0-29): 0/0
Hair discolored, Red, Face, times observed/animals affected (225 mg base/kg/day, GD 0-29): 0/0
Hair discolored, Red, Forelimb/left, times observed/animals affected (225 mg base/kg/day, GD 0-29): 0/0
Hair discolored, Red, Thoracic region, times observed/animals affected (225 mg base/kg/day, GD 0-29): 0/0
Hair discolored, Yellow, Ear/right, times observed/animals affected (225 mg base/kg/day, GD 0-29): 0/0
Hair discolored, Yellow, Face, times observed/animals affected (225 mg base/kg/day, GD 0-29): 14/2
Hair sparse, Anogenital region, times observed/animals affected (225 mg base/kg/day, GD 0-29): 0/0
Hair sparse, Axillary region/left, times observed/animals affected (225 mg base/kg/day, GD 0-29): 3/1
Hair sparse, Axillary region/right, times observed/animals affected (225 mg base/kg/day, GD 0-29): 2/1
Hair sparse, Cervical region, times observed/animals affected (225 mg base/kg/day, GD 0-29): 0/0
Hair sparse, Ear/left, times observed/animals affected (225 mg base/kg/day, GD 0-29): 0/0
Hair sparse, Ear/right, times observed/animals affected (225 mg base/kg/day, GD 0-29): 0/0
Hair sparse, Forefoot/left, times observed/animals affected (225 mg base/kg/day, GD 0-29): 3/1
Hair sparse, Forefoot/right, times observed/animals affected (225 mg base/kg/day, GD 0-29): 5/2
Hair sparse, Forelimb/left, times observed/animals affected (225 mg base/kg/day, GD 0-29): 0/0
Hair sparse, Hind limb/left, times observed/animals affected (225 mg base/kg/day, GD 0-29): 8/1
Hair sparse, Inguinal region/right, times observed/animals affected (225 mg base/kg/day, GD 0-29): 0/0
Hair sparse, Shoulder/left, times observed/animals affected (225 mg base/kg/day, GD 0-29): 0/0
Hair sparse, Thoracic region, times observed/animals affected (225 mg base/kg/day, GD 0-29): 1/1
Hair sparse, Ventral surface, times observed/animals affected (225 mg base/kg/day, GD 0-29): 0/0
Material in pan/bedding, Red, times observed/animals affected (225 mg base/kg/day, GD 0-29): 2/2
Nail missing, Forefoot/left, times observed/animals affected (225 mg base/kg/day, GD 0-29): 0/0
Scabbed area, Ear/left, times observed/animals affected (225 mg base/kg/day, GD 0-29): 0/0
Scabbed area, Nose/muzzle, times observed/animals affected (225 mg base/kg/day, GD 0-29): 0/0
Skin discolored, Pale, Entire body, times observed/animals affected (225 mg base/kg/day, GD 0-29): 11/1
Swelling, Nose/muzzle, times observed/animals affected (225 mg base/kg/day, GD 0-29): 0/0
Swelling, Vulva, times observed/animals affected (225 mg base/kg/day, GD 0-29): 2/1
Thin, times observed/animals affected (225 mg base/kg/day, GD 0-29): 38/5
NOAEL for maternal and developmental toxicity (pregnant rabbits): 50 mg base/kg/day
doses at which embryo-fetal effects were observed (abortion, post-implantation loss, malformations, decreased fetal body weight) (pregnant rabbits, oral): ≥ 50 mg/kg/day
doses at which maternal toxicity (body weight loss and mortality) was observed (pregnant rabbits, oral, organogenesis): ≥ 125 mg/kg/day

Source: patent publication US20240277713A1 (Kadmon Corporation, LLC, priority 2022, published 2024)
